Like-named read-outs stand apart in the source and are kept apart here.

For one assay, the target named is T1, apelin receptor (APJ) (Homo sapiens, UniProt P35414).
T1 sequence (P35414 1-380): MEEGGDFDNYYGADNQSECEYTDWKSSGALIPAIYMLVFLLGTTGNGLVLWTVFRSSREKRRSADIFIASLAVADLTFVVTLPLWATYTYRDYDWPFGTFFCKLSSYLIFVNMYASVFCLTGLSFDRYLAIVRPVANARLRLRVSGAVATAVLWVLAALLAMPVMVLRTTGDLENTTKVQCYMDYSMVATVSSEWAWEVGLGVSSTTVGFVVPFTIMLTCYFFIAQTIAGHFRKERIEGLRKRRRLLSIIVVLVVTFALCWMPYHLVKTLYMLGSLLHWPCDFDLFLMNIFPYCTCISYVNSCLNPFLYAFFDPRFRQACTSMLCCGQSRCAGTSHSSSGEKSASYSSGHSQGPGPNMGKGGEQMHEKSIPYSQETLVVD
Description: in vitro apelin agonist activity (methods of Giddings et al., Apelin-13 as positive control). Format: cell-based. From the text: The compounds above were studied for their in vitro activity as apelin agonists using the methods described by Giddings et al. Giddings et al., 2010 Int J High Thro Screen. 1:39-47, the contents of which are hereby incorporated by reference in its entirety.

The next assay relates to C57BL/6 mice. Description: in vivo blood pressure lowering activity, non-invasive blood pressure and heart rate after IP injection. The following applies: Apelin-13 at 0.4 nmol/kg. On the procedure: The compounds were also assayed for blood pressure activity using C57BL/6 mice and the procedure described by Tatemoto et al. The novel peptide apelin lowers blood pressure via a nitric oxide-dependent mechanism. Regul Pept. 2001; 99: 87-92. […] Studies have been published citing reductions in blood pressure occur following peptide apelin administration. Apelin-13 was used as a positive control. Knockout C57BL/6 mice lacking APJ have cardiovascular deficiencies. […] Charo et al. Am J Physiol Heart Circ Physiol. 2009 November 297(5):[…] et al. J Physiol Biochem. 2007 December; 63(4):359-73. Blood pressure measurements in these species of mice have been reported in the literature. […] et al. Am J Physiol Heart Circ Physiol. 2003 February; 284(2):[…]-74. On the first day of the study, 11 animals were treated with apelin-13, 11 with vehicle alone, and 11 as sham controls. The two later groups were used to determine effects (if any) of the vehicle or injection alone on blood pressure (BP). The experiment was conducted as follows: The animals were restrained and a baseline measurement taken for 5 min. Animals were injected and immediately monitored for 15 minutes. The effect of test agents should be apparent within this time. Tatemoto et al. reported that the effects of Apelin-13 were apparent within minutes. Tatemoto et al. 2001 Immediately following dosing, blood pressure (diastolic, systolic and mean pressure) and heart rate for each animal was recorded for up to 15 minutes using a Kent Scientific CODA Non-Invasive Blood Pressure System. […] On day 2-5 a similar protocol was used in increasing doses. The animals were randomized daily in three groups of 11 to receive either of the two experimental compounds by IP injection. […] At the end of the 5-day dosing period, all animals were humanely euthanized. [table]

[1] abbreviates: apelin agonist activity, Giddings et al. method, read-out: agonist activity (EC50).

Usually EC50 stands for the concentration giving half of the maximal effect. For the compound `CCCNC(=O)C[C@H](CC(C)C)NC(=O)c1cc(-c2c(OC)cccc2OC)n(CC(C)C)n1` [compound 157, (S)-5-(2,6-dimethoxyphenyl)-1-isobutyl-N-(5-methyl-1-oxo-1-(propylamino)hexan-3-yl)-1H-pyrazole-3-carboxamide], on apelin receptor (APJ) (setting [1]), the concentration for a half-maximal effect (EC50) is under 10 µM. As for `COC(=O)CN(C)C(=O)C[C@H](CC(C)C)NC(=O)c1cc(-c2c(OC)cccc2OC)n(CC(C)C)n1` [compound 218], the EC50 on apelin receptor (APJ) (setting [1]) was under 10 µM.

As to `COC(=O)CNC(=O)C[C@H](CC(C)C)NC(=O)c1cc(-c2c(OC)cccc2OC)n(CC(C)(C)C)n1` [compound 187], on apelin receptor (APJ) (setting [1]), the concentration giving a half-maximal response (EC50) is under 10 µM.

Consider `COC(=O)CNC(=O)[C@H](CC(C)C)NC(=O)c1cc(-c2c(OC)cccc2OC)n(C2CCCCC2)n1` [compound 189], for which the EC50 at apelin receptor (APJ) (setting [1]) was under 10 µM.

With `COc1cccc(OC)c1-c1cc(C(=O)N[C@H](CC(=O)NCc2ncco2)CC(C)C)nn1CC(C)C` [compound 140, (S)-5-(2,6-Dimethoxyphenyl)-1-isobutyl-N-(5-methyl-1-((oxazol-2-ylmethyl)amino)-1-oxohexan-3-yl)-1H-pyrazole-3-carboxamide], the half-maximal effective concentration (EC50) at apelin receptor (APJ) (setting [1]) is under 10 µM. On the same count and under the same terms, under `CCOC(=O)CCNC(=O)C[C@H](CC(C)C)NC(=O)c1cc(-c2c(OC)cccc2OCc2ccccc2)n(C2CCCCC2)n1` [compound 138, Ethyl 3-((3S)-3-(5-(2-(benzyloxy)-6-methoxyphenyl)-1-cyclohexyl-1H-pyrazole-3-carboxamido)-5-methylhexanamido)propanoate] stands under 10 µM. Still for that read-out and setting: under `COC(=O)CNC(=O)[C@H](CC(C)C)NC(=O)c1cc(-c2c(OC)cccc2OC)n(CC(C)C)n1` [compound 188] stands under 10 µM; under `CCCCNC(=O)C[C@H](CC(C)C)NC(=O)c1cc(-c2c(OC)c(F)cc(F)c2OC)n(CC(C)C)n1` [compound 168], under 10 µM.

Turning to `COC(=O)CNC(=O)C[C@H](CC(C)C)NC(=O)c1cc(-c2c(OC)cccc2OC)n(-c2ccc(F)cc2)n1` [compound 137], the EC50 on apelin receptor (APJ) (setting [1]) was under 10 µM. The same measure, in the same setting: under `COC(=O)COc1cccc(OC)c1-c1cc(C(=O)N[C@H](CC(=O)O)CC(C)C)nn1-c1ccc(F)cc1` [compound 86] stands under 10 µM; under `CNC(=O)C[C@H](CC(C)C)NC(=O)c1cc(-c2c(OC)cccc2OC)n(CC(C)C)n1` [compound 141, (S)-5-(2,6-Dimethoxyphenyl)-1-isobutyl-N-(5-methyl-1-(methylamino)-1-oxohexan-3-yl)-1H-pyrazole-3-carboxamide], under 10 µM; under `CCCN(C)C(=O)C[C@H](CC(C)C)NC(=O)c1cc(-c2c(OC)cccc2OC)n(CC(C)C)n1` [compound 171], under 10 µM. On the same count and under the same terms, the same measure for `COc1cccc(OC)c1-c1cc(C(=O)N[C@H](CC(=O)O)CC(C)C)nn1CC1CC1` [compound 181]: under 10 µM; for `COC(=O)C[C@H](CC(C)C)NC(=O)c1cc(-c2c(OC)cccc2OC)n(CC(C)C)n1` [compound 164]: under 10 µM; for `COC(=O)CNC(=O)C[C@H](CC(C)C)N(C)C(=O)c1cc(-c2c(OC)cccc2OC)n(CC(C)C)n1` [compound 238]: under 10 µM.

For the compound `COc1cccc(OC)c1-c1cc(C(=O)N[C@@H](CC(=O)O)CC(C)C)nn1-c1ccc(F)cc1` [compound 67], at apelin receptor (APJ) (setting [1]), the EC50 was under 10 µM.

Take `COc1cccc(OC)c1-c1cc(C(=O)N[C@H](CC(=O)O)CC(C)C)nn1C1CCCC1` [compound 182]: the EC50 at apelin receptor (APJ) (setting [1]) was under 10 µM. For the compound `COc1cccc(OC)c1-c1cc(C(=O)N[C@H](CC(=O)O)CC(C)C)nn1CC(C)C` [compound 118], on apelin receptor (APJ) (setting [1]), the concentration giving a half-maximal response (EC50) was under 10 µM. On the same count and under the same terms, under `COC(=O)CNC(=O)C[C@H](CC(C)C)NC(=O)c1cc(-c2c(OC)cccc2OC)n(CC(C)C)n1` [compound 130, (S)-Methyl 2-(3-(5-(2,6-dimethoxyphenyl)-1-isobutyl-1H-pyrazole-3-carboxamido)-5-methylhexanamido)acetate] stands under 10 µM.

As to `COc1c(F)cc(F)c(OC)c1-c1cc(C(=O)N[C@H](CC(=O)O)CC(C)C)nn1CC(C)C` [compound 167], the EC50 on apelin receptor (APJ) (setting [1]) is under 10 µM. Still for that read-out and setting: the same measure for `CCCCNC(=O)C[C@H](CC(C)C)NC(=O)c1cc(-c2c(OC)cccc2OCc2ccccc2)n(C2CCCCC2)n1` [compound 133, 5-(2-(Benzyloxy)-6-methoxyphenyl)-N-((S)-1-(butylamino)-5-methyl-1-oxohexan-3-yl)-1-cyclohexyl-1H-pyrazole-3-carboxamide]: under 10 µM. With `COc1cccc(OC)c1-c1cc(C(=O)N[C@@H](CC(C)C)C(=O)O)nn1-c1ccc(F)cc1` [compound 34], on apelin receptor (APJ), the EC50 is under 10 µM.

For `COc1cccc(OCc2ccccc2)c1-c1cc(C(=O)N[C@H](CC(=O)NCC(=O)N(C)C)CC(C)C)nn1C1CCCCC1` [compound 136, 5-(2-(Benzyloxy)-6-methoxyphenyl)-1-cyclohexyl-N-((S)-1-((2-(dimethylamino)-2-oxoethyl)amino)-5-methyl-1-oxohexan-3-yl)-1H-pyrazole-3-carboxamide], the EC50 at apelin receptor (APJ) (setting [1]) was under 10 µM. On the same count and under the same terms, the same measure for `COc1cccc(OC)c1-c1cc(C(=O)N[C@H](CC(=O)NCC2CCCCC2)CC(C)C)nn1CC(C)C` [compound 155, (S)—N-(1-((Cyclohexylmethyl)amino)-5-methyl-1-oxohexan-3-yl)-5-(2,6-dimethoxyphenyl)-1-isobutyl-1H-pyrazole-3-carboxamide]: under 10 µM.

On to `COC(=O)CNC(=O)[C@H](CC1CCCCC1)NC(=O)c1cc(-c2c(OC)cccc2OC)n(CC(C)C)n1` [compound 198], for which the concentration giving a half-maximal response (EC50) on apelin receptor (APJ) (setting [1]) is under 10 µM; at apelin receptor (APJ) (mean based on three runs, read-out: mean activity (EC50)), 0.053 µM. On apelin receptor (APJ), `COc1cccc(OC)c1-c1cc(C(=O)N[C@H](C(=O)NCC(=O)O)C2CCCCC2)nn1-c1ccc(F)cc1` [compound 70] came in with a concentration giving a half-maximal response (EC50) of under 10 µM. `COc1cccc(OC)c1-c1cc(C(=O)N[C@H](CC(=O)NCC(N)=O)CC(C)C)nn1CC(C)C` [compound 175]: the concentration for a half-maximal effect (EC50) on apelin receptor (APJ) (setting [1]) was under 10 µM. The same measure, in the same setting: the same measure for `COc1cccc(OC)c1-c1cc(C(=O)N[C@H](CC(=O)NCC(=O)O)CC(C)C)nn1CC(C)C` [compound 174]: under 10 µM; for `COc1cccc(OCc2ccccc2)c1-c1cc(C(=O)N[C@H](CC(=O)NCc2ncco2)CC(C)C)nn1C1CCCCC1` [compound 134, 5-(2-(Benzyloxy)-6-methoxyphenyl)-1-cyclohexyl-N-((S)-5-methyl-1-((oxazol-2-ylmethyl)amino)-1-oxohexan-3-yl)-1H-pyrazole-3-carboxamide]: under 10 µM. For the compound `COC(=O)CNC(=O)C[C@H](CC(C)C)NC(=O)c1cc(-c2c(OC)cccc2OC)n(CC2CC2)n1` [compound 183], the half-maximal effective concentration (EC50) on apelin receptor (APJ) (setting [1]) was under 10 µM. Same read-out and setting: the same measure for `COc1cccc(OC)c1-c1cc(C(=O)N[C@H](CC(=O)NCC(=O)O)CC(C)C)nn1-c1ccc(F)cc1` [compound 77, (S)-2-(3-(5-(2,6-Dimethoxyphenyl)-1-(4-fluorophenyl)-1H-pyrazole-3-carboxamido)-5-methylhexanamido)acetic acid]: under 10 µM; for `CCCn1nc(C(=O)N[C@H](CC(=O)NCC(=O)OC)CC(C)C)cc1-c1c(OC)cccc1OC` [compound 186]: under 10 µM; for `COc1cccc(OCc2ccccc2)c1-c1cc(C(=O)N[C@H](CC(=O)O)CC(C)C)nn1C1CCCCC1` [compound 126, (3S)-3-(5-(2-(Benzyloxy)-6-methoxyphenyl)-1-cyclohexyl-1H-pyrazole-3-carboxamido)-5-methylhexanoic acid]: under 10 µM. The same measure, in the same setting: under `COC(=O)CNC(=O)C[C@H](CC(C)C)NC(=O)c1cc(-c2c(OC)cccc2OC)n(C2CCCCC2)n1` [compound 103, (S)-Methyl 2-(3-(1-cyclohexyl-5-(2,6-dimethoxyphenyl)-1H-pyrazole-3-carboxamido)-5-methylhexanamido)acetate] stands under 10 µM; under `CNC(=O)CNC(=O)C[C@H](CC(C)C)NC(=O)c1cc(-c2c(OC)cccc2OC)n(CC(C)C)n1` [compound 176], under 10 µM; under `CCCNC(=O)[C@H](CCc1ccccc1)NC(=O)c1cc(-c2c(OC)cccc2OC)n(CC(C)C)n1` [compound 225], under 10 µM. Still for that read-out and setting: under `COc1cccc(OC)c1-c1cc(C(=O)N[C@H](CC(N)=O)CC(C)C)nn1-c1ccc(F)cc1` [compound 65] stands under 10 µM. For Apelin-13 [reference compound], in the assay on C57BL/6 mice, the “lowers blood pressure by” value is recorded as about 10%.

Values taken from patent US10377718B2, “Apelin receptor (APJ) agonists and uses thereof” (Research Triangle Institute, priority 2014, dated 2019).
